# Results from ChEMBL document CHEMBL1145525, “Discovery of antiandrogen activity of nonsteroidal scaffolds of marketed drugs” (Proc Natl Acad Sci U S A, 2007).
# Activity calls are given as the source filed them. The rule behind the calls is not given here.
# Columns and labels:
# [1] = test system: PC-3; experiment: Cytotoxicity against human PC3 cells upto 10 uM by SRB assay; format: functional, cell-based
# [2] = test system: LNCaP; experiment: Increase in prostate specific antigen expression level in human LNCaP cells at 1 uM; format: functional, cell-based
# [3] = test system: LNCaP; experiment: Reduction of prostate specific antigen expression level in human LNCaP cells at 10 uM; format: functional; parameters: scale not given: the % may be the effect or the level left
# [4] = test system: HeLa; experiment: Effect on translocation of androgen receptor from cytoplasm to nucleus in human HeLa cells at 1 uM in presence of dihydrotestosterone; format: functional
# [5] = molecular target: D(2) dopamine receptor (Homo sapiens) (UniProt P14416); experiment: Displacement of [3H]spiperone from human dopamine D2L receptor expressed in CHO FlpIn cells upto 1 uM; format: cell-based
# Chain of D(2) dopamine receptor (Homo sapiens) (P14416 whole entry): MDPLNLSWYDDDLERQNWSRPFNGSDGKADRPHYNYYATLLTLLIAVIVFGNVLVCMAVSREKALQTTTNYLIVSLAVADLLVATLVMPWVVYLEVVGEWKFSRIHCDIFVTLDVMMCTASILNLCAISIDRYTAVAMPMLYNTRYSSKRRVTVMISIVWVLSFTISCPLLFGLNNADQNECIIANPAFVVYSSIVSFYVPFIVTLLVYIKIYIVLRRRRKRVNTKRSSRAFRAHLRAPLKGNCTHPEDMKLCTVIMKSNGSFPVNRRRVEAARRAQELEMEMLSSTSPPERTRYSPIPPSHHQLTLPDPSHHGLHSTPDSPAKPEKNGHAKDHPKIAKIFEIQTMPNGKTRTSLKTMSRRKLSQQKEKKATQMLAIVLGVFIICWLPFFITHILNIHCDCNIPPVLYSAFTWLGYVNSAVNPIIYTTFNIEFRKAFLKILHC
# [6] = molecular target: 5-hydroxytryptamine receptor 2A (Homo sapiens) (UniProt P28223); experiment: Displacement of [3H]ketanserin from human dopamine 5HT2A receptor expressed in CHO-K1 cells upto 1 uM; format: cell-based
# Chain of 5-hydroxytryptamine receptor 2A (Homo sapiens) (P28223 whole entry): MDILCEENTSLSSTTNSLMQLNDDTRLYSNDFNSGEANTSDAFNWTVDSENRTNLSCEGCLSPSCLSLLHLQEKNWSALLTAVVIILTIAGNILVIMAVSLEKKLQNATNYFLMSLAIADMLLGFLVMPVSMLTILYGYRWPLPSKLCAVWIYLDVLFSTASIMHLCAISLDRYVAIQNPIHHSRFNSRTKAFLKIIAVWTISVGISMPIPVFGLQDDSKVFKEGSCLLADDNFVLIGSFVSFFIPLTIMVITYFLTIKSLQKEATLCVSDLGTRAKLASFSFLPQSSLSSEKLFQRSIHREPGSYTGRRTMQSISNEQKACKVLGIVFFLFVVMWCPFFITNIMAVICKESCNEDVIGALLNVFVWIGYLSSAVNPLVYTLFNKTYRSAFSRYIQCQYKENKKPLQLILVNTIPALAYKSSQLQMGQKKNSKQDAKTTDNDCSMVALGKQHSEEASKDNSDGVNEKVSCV
# [7] = molecular target: T1, 5-hydroxytryptamine receptor 2C (Homo sapiens) (UniProt P28335); experiment: Displacement of [3H]mesulergine from human dopamine 5HT2C receptor expressed in CHO-K1 cells upto 1 uM; format: cell-based
# T1 sequence (whole entry): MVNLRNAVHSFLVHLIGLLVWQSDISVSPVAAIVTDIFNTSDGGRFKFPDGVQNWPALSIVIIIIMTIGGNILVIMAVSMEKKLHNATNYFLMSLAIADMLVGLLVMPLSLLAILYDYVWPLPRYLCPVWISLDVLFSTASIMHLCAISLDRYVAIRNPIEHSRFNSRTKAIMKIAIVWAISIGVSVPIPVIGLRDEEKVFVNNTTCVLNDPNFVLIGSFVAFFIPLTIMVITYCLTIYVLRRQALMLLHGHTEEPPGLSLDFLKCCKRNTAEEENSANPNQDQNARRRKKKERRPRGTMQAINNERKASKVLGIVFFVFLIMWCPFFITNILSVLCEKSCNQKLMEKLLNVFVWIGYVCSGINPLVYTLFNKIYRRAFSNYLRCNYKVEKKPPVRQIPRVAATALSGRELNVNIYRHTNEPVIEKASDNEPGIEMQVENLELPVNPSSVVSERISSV
# [8] = molecular target: T2, Androgen receptor (Homo sapiens, UniProt P10275); experiment: Inhibition of wild type androgen receptor expressed in CV1 cells assessed as dihydrotestosterone-stimulated transactivation by CAT reporter gene assay; format: cell-based, CV-1
# T2 sequence (P10275 whole entry): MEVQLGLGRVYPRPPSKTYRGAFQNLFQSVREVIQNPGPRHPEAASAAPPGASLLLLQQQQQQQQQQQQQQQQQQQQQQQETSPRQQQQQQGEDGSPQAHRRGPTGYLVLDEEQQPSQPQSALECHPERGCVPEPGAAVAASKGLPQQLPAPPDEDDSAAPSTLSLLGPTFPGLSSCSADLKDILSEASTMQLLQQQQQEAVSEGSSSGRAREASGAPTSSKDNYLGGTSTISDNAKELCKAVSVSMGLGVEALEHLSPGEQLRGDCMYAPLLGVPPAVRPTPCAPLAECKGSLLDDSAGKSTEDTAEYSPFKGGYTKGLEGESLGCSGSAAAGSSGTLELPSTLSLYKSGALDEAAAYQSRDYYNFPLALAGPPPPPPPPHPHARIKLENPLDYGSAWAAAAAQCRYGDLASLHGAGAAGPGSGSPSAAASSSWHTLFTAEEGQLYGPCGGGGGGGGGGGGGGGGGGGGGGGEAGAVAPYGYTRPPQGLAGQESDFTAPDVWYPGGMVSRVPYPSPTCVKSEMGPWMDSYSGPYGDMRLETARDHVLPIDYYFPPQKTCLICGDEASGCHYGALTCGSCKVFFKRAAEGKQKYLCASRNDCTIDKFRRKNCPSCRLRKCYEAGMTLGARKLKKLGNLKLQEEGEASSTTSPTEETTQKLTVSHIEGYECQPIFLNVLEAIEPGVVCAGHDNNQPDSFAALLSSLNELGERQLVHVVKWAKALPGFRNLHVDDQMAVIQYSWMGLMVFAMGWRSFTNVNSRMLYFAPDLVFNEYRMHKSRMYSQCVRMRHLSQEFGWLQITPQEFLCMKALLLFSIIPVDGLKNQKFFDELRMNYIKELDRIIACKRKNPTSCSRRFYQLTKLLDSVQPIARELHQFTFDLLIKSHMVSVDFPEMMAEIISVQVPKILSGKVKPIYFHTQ
# [9] = molecular target: T3, Androgen receptor (Rattus norvegicus, UniProt P15207); experiment: Displacement of [3H]mibolerone from rat androgen receptor
# T3 sequence (P15207 whole entry): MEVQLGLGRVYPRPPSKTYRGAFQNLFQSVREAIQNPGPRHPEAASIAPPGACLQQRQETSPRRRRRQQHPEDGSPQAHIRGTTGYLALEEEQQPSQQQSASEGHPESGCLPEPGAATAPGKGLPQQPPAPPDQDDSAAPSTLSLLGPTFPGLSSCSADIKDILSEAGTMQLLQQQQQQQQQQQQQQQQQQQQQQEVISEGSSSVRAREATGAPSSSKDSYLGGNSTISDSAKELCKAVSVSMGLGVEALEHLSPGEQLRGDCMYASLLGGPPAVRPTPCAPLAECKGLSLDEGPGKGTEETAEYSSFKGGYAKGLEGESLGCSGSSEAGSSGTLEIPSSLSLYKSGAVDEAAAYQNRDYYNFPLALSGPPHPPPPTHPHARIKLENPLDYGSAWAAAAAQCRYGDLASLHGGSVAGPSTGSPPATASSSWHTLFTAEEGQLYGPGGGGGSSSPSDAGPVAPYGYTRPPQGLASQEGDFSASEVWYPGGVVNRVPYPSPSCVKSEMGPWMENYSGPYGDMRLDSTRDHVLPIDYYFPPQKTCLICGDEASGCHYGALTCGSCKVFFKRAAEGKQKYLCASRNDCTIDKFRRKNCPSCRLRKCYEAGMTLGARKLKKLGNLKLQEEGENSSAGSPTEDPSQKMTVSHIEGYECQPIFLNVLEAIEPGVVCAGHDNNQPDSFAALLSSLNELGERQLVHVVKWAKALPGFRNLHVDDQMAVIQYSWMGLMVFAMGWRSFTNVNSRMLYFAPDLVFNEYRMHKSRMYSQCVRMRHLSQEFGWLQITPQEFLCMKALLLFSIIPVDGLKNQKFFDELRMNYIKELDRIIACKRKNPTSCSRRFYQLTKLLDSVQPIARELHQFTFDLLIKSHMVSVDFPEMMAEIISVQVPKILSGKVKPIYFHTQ
Compound,Activity [1],Activity [2],Activity [3] [%],Activity [4] [%],Activity [5],Activity [6],Activity [7],IC50 ([8]; read-out: IC50) [nM],IC50 ([8]; read-out: Log IC50 (converted)) [nM],Ki [9] [nM]
O=C(CN1c2ccccc2Sc2ccc(C(F)(F)F)cc21)c1cccc2ccccc12,inactive,Active,>80,>90,inactive,inactive,inactive,250,251,
N#Cc1ccc2c(c1)N(CCCN1CCC(O)CC1)c1ccccc1S2 [PERICIAZINE],,,,,,,,,,3000
